Experiment: xn = mol fraction of the nth substance listed
Details: 101 kPa, Liquid; for viscosity: Falling or rolling sphere viscometry; for mass density: Vibrating tube method

CCCC(=O)OCC [ethyl butanoate] + CCCCO
Details | mass density [kg/m3] | viscosity [mPa·s]
288.15 K, x1 = 0.1 | 822.84 | 2.336
288.15 K, x1 = 0.2001 | 831.39 | 1.762
288.15 K, x1 = 0.2999 | 839.43 | 1.408
288.15 K, x1 = 0.3998 | 846.96 | 1.186
288.15 K, x1 = 0.5 | 854.06 | 1.022
288.15 K, x1 = 0.5999 | 860.72 | 0.9212
288.15 K, x1 = 0.6998 | 867 | 0.8393
288.15 K, x1 = 0.7999 | 872.95 | 0.785
288.15 K, x1 = 0.9001 | 878.66 | 0.7409
288.15 K, x1 = 1 | 884.16 | 0.7224
293.15 K, x1 = 0.1 | 818.8 | 2.037
293.15 K, x1 = 0.2001 | 827.16 | 1.581
293.15 K, x1 = 0.2999 | 835.01 | 1.279
293.15 K, x1 = 0.3998 | 842.37 | 1.085
293.15 K, x1 = 0.5 | 849.32 | 0.9419
293.15 K, x1 = 0.5999 | 855.86 | 0.8544
293.15 K, x1 = 0.6998 | 862.01 | 0.7817
293.15 K, x1 = 0.7999 | 867.86 | 0.7316
293.15 K, x1 = 0.9001 | 873.47 | 0.6958
293.15 K, x1 = 1 | 878.9 | 0.6808
298.15 K, x1 = 0.1 | 814.75 | 1.841
298.15 K, x1 = 0.2001 | 822.9 | 1.427
298.15 K, x1 = 0.2999 | 830.57 | 1.166
298.15 K, x1 = 0.3998 | 837.77 | 0.9988
298.15 K, x1 = 0.5 | 844.57 | 0.8734
298.15 K, x1 = 0.5999 | 850.97 | 0.7967
298.15 K, x1 = 0.6998 | 857 | 0.7315
298.15 K, x1 = 0.7999 | 862.74 | 0.6849
298.15 K, x1 = 0.9001 | 868.27 | 0.656
298.15 K, x1 = 1 | 873.62 | 0.643
303.15 K, x1 = 0.1 | 810.68 | 1.648
303.15 K, x1 = 0.2001 | 818.63 | 1.292
303.15 K, x1 = 0.2999 | 826.12 | 1.068
303.15 K, x1 = 0.3998 | 833.15 | 0.9215
303.15 K, x1 = 0.5 | 839.8 | 0.8111
303.15 K, x1 = 0.5999 | 846.07 | 0.7434
303.15 K, x1 = 0.6998 | 851.98 | 0.6856
303.15 K, x1 = 0.7999 | 857.62 | 0.6447
303.15 K, x1 = 0.9001 | 863.05 | 0.6181
303.15 K, x1 = 1 | 868.33 | 0.6072
308.15 K, x1 = 0.1 | 806.58 | 1.479
308.15 K, x1 = 0.2001 | 814.33 | 1.174
308.15 K, x1 = 0.2999 | 821.63 | 0.9797
308.15 K, x1 = 0.3998 | 828.5 | 0.852
308.15 K, x1 = 0.5 | 835.01 | 0.7542
308.15 K, x1 = 0.5999 | 841.14 | 0.6973
308.15 K, x1 = 0.6998 | 846.94 | 0.6428
308.15 K, x1 = 0.7999 | 852.47 | 0.6063
308.15 K, x1 = 0.9001 | 857.82 | 0.583
308.15 K, x1 = 1 | 863.02 | 0.5736
313.15 K, x1 = 0.1 | 802.44 | 1.342
313.15 K, x1 = 0.2001 | 809.99 | 1.078
313.15 K, x1 = 0.2999 | 817.12 | 0.9078
313.15 K, x1 = 0.3998 | 823.82 | 0.7938
313.15 K, x1 = 0.5 | 830.18 | 0.7053
313.15 K, x1 = 0.5999 | 836.19 | 0.6517
313.15 K, x1 = 0.6998 | 841.87 | 0.6037
313.15 K, x1 = 0.7999 | 847.3 | 0.57
313.15 K, x1 = 0.9001 | 852.56 | 0.5487
313.15 K, x1 = 1 | 857.7 | 0.5425
318.15 K, x1 = 0.1 | 798.28 | 1.204
318.15 K, x1 = 0.2001 | 805.63 | 0.9786
318.15 K, x1 = 0.2999 | 812.57 | 0.8314
318.15 K, x1 = 0.3998 | 819.12 | 0.7327
318.15 K, x1 = 0.5 | 825.33 | 0.6556
318.15 K, x1 = 0.5999 | 831.21 | 0.6088
318.15 K, x1 = 0.6998 | 836.78 | 0.5678
318.15 K, x1 = 0.7999 | 842.11 | 0.5382
318.15 K, x1 = 0.9001 | 847.29 | 0.5197
318.15 K, x1 = 1 | 852.36 | 0.5132
323.15 K, x1 = 0.1 | 794.08 | 1.109
323.15 K, x1 = 0.2001 | 801.22 | 0.9039
323.15 K, x1 = 0.2999 | 807.99 | 0.7743
323.15 K, x1 = 0.3998 | 814.38 | 0.685
323.15 K, x1 = 0.5 | 820.45 | 0.6163
323.15 K, x1 = 0.5999 | 826.2 | 0.5736
323.15 K, x1 = 0.6998 | 831.66 | 0.5372
323.15 K, x1 = 0.7999 | 836.9 | 0.5114
323.15 K, x1 = 0.9001 | 842 | 0.4942
323.15 K, x1 = 1 | 847 | 0.487

CCCC(=O)OCC [ethyl butanoate] + CCCO
Details | mass density [kg/m3] | viscosity [mPa·s]
288.15 K, x1 = 0.1001 | 819.96 | 1.784
288.15 K, x1 = 0.2 | 830.48 | 1.392
288.15 K, x1 = 0.2999 | 839.77 | 1.151
288.15 K, x1 = 0.3994 | 848.08 | 1.008
288.15 K, x1 = 0.4999 | 855.6 | 0.9046
288.15 K, x1 = 0.6002 | 862.45 | 0.8354
288.15 K, x1 = 0.6998 | 868.56 | 0.7874
288.15 K, x1 = 0.8001 | 874.16 | 0.7517
288.15 K, x1 = 0.9001 | 879.26 | 0.7286
288.15 K, x1 = 1 | 884.16 | 0.7224
293.15 K, x1 = 0.1001 | 815.72 | 1.599
293.15 K, x1 = 0.2 | 826.03 | 1.262
293.15 K, x1 = 0.2999 | 835.14 | 1.054
293.15 K, x1 = 0.3994 | 843.3 | 0.9293
293.15 K, x1 = 0.4999 | 850.69 | 0.8397
293.15 K, x1 = 0.6002 | 857.44 | 0.779
293.15 K, x1 = 0.6998 | 863.46 | 0.737
293.15 K, x1 = 0.8001 | 868.99 | 0.706
293.15 K, x1 = 0.9001 | 874.03 | 0.6861
293.15 K, x1 = 1 | 878.9 | 0.6808
298.15 K, x1 = 0.1001 | 811.45 | 1.438
298.15 K, x1 = 0.2 | 821.55 | 1.147
298.15 K, x1 = 0.2999 | 830.49 | 0.9686
298.15 K, x1 = 0.3994 | 838.5 | 0.8586
298.15 K, x1 = 0.4999 | 845.76 | 0.7808
298.15 K, x1 = 0.6002 | 852.4 | 0.7275
298.15 K, x1 = 0.6998 | 858.34 | 0.6906
298.15 K, x1 = 0.8001 | 863.8 | 0.6636
298.15 K, x1 = 0.9001 | 868.79 | 0.6465
298.15 K, x1 = 1 | 873.62 | 0.643
303.15 K, x1 = 0.1001 | 807.15 | 1.3
303.15 K, x1 = 0.2 | 817.04 | 1.048
303.15 K, x1 = 0.2999 | 825.81 | 0.8932
303.15 K, x1 = 0.3994 | 833.68 | 0.7965
303.15 K, x1 = 0.4999 | 840.81 | 0.727
303.15 K, x1 = 0.6002 | 847.35 | 0.68
303.15 K, x1 = 0.6998 | 853.2 | 0.6481
303.15 K, x1 = 0.8001 | 858.59 | 0.624
303.15 K, x1 = 0.9001 | 863.53 | 0.6098
303.15 K, x1 = 1 | 868.33 | 0.6072
308.15 K, x1 = 0.1001 | 802.83 | 1.179
308.15 K, x1 = 0.2 | 812.51 | 0.959
308.15 K, x1 = 0.2999 | 821.1 | 0.8239
308.15 K, x1 = 0.3994 | 828.82 | 0.7391
308.15 K, x1 = 0.4999 | 835.83 | 0.6786
308.15 K, x1 = 0.6002 | 842.27 | 0.638
308.15 K, x1 = 0.6998 | 848.03 | 0.6089
308.15 K, x1 = 0.8001 | 853.36 | 0.5882
308.15 K, x1 = 0.9001 | 858.26 | 0.5756
308.15 K, x1 = 1 | 863.02 | 0.5736
313.15 K, x1 = 0.1001 | 798.47 | 1.073
313.15 K, x1 = 0.2 | 807.94 | 0.8796
313.15 K, x1 = 0.2999 | 816.35 | 0.7599
313.15 K, x1 = 0.3994 | 823.93 | 0.6873
313.15 K, x1 = 0.4999 | 830.81 | 0.6338
313.15 K, x1 = 0.6002 | 837.16 | 0.598
313.15 K, x1 = 0.6998 | 842.84 | 0.5722
313.15 K, x1 = 0.8001 | 848.11 | 0.5543
313.15 K, x1 = 0.9001 | 852.96 | 0.544
313.15 K, x1 = 1 | 857.7 | 0.5424
318.15 K, x1 = 0.1001 | 794.06 | 0.9782
318.15 K, x1 = 0.2 | 803.33 | 0.8084
318.15 K, x1 = 0.2999 | 811.58 | 0.7044
318.15 K, x1 = 0.3994 | 819 | 0.6398
318.15 K, x1 = 0.4999 | 825.77 | 0.5926
318.15 K, x1 = 0.6002 | 832 | 0.5612
318.15 K, x1 = 0.6998 | 837.62 | 0.5398
318.15 K, x1 = 0.8001 | 842.82 | 0.5227
318.15 K, x1 = 0.9001 | 847.64 | 0.5138
318.15 K, x1 = 1 | 852.36 | 0.5132
323.15 K, x1 = 0.1001 | 789.62 | 0.9018
323.15 K, x1 = 0.2 | 798.67 | 0.7475
323.15 K, x1 = 0.2999 | 806.74 | 0.6572
323.15 K, x1 = 0.3994 | 814.03 | 0.601
323.15 K, x1 = 0.4999 | 820.68 | 0.5568
323.15 K, x1 = 0.6002 | 826.83 | 0.5301
323.15 K, x1 = 0.6998 | 832.37 | 0.5106
323.15 K, x1 = 0.8001 | 837.52 | 0.4955
323.15 K, x1 = 0.9001 | 842.3 | 0.488
323.15 K, x1 = 1 | 847 | 0.487
